Reference: patent US20250177383A1, “DI-CYCLOPROPYL BASED IL-17A MODULATORS AND USES THEREOF” (DICE ALPHA, INC., priority 2022, published 2025)

Target: T1, IL-17A/A (Homo sapiens, UniProt Q16552)
T1 sequence (Q16552 24-155): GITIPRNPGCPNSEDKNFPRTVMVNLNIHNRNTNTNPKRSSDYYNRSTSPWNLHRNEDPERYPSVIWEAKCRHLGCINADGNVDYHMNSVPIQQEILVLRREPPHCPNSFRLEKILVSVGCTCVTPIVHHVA
Assay: IL-17A/A HEK-Blue Cell Assay
Format: cell-based
Conditions: HEK-Blue IL-17 reporter cells, IL-17A/A stimulation, 20 hours, SEAP readout; read-out: IL17 AA HEK-5 pIC50 (converted)
Outline: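 Cells co-expressing IL-17RA, IL-17RC and Act1 received titrated compound, top final 10 uM in 0.1% DMSO, immediately before IL-17A/A stimulation.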
In the case of `CCC(=O)N[C@@H](C(=O)N1CCN(C)[C@@H](C)C1)[C@@H](C)c1ccc(NC(=O)[C@@H](NC(=O)c2ccnn2CC)C(C2CC2)C2CC2)c(F)c1` [Compound 213], the IC50 is reported as < 10 nM. In the case of `CCC(=O)N[C@@H](C(=O)N1C[C@@H](C)N(C)[C@@H](C)C1)[C@@H](C)c1ccc(NC(=O)[C@@H](NC(=O)c2ccnn2CC)C(C2CC2)C2CC2)c(F)c1` [Compound 223], the IC50 is reported as < 10 nM. With `CCC(=O)N[C@@H](C(=O)N1C[C@@H](C)N(C)C[C@H]1C)[C@@H](C)c1ccc(NC(=O)[C@@H](NC(=O)c2ccnn2CC)C(C2CC2)C2CC2)c(F)c1` [Compound 212] the IC50 was < 10 nM. With `CCC(=O)N[C@@H](C(=O)N1CCN(C)[C@H](C)C1)[C@@H](C)c1ccc(NC(=O)[C@@H](NC(=O)c2ccnn2CCF)C(C2CC2)C2CC2)c(F)c1` [Compound 217] the IC50 was < 10 nM. In the case of `CCC(=O)N[C@@H](C(=O)N1CCN(C)CC1)[C@@H](C)c1ccc(NC(=O)[C@@H](NC(=O)c2ccnn2C(C)C)C(C2CC2)C2CC2)c(F)c1` [Compound 257], the IC50 is reported as < 10 nM.

Target: T2, IL-17A/F (Homo sapiens, UniProt Q16552+Q96PD4)
T2 sequence (Q16552 24-155): T1 sequence (Q16552 24-155)
T2 sequence (Q96PD4 31-163): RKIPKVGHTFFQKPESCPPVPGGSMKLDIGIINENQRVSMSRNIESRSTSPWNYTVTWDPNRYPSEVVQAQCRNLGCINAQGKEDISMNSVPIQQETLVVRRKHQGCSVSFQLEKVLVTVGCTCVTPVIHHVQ
Assay: IL-17A/F HEK-Blue Cell Assay
Format: cell-based
Conditions: HEK-Blue IL-17 reporter cells, IL-17A/F stimulation, 20 hours, SEAP readout; read-out: IL17AF HEK Blue pIC50 (converted)
`CCC(=O)N[C@@H](C(=O)N1CCN(C)[C@@H](C)C1)[C@@H](C)c1ccc(NC(=O)[C@@H](NC(=O)c2ccnn2CC)C(C2CC2)C2CC2)c(F)c1` [Compound 213] gave an IC50 of 10 to 100 nM. `CCC(=O)N[C@@H](C(=O)N1C[C@@H](C)N(C)C[C@H]1C)[C@@H](C)c1ccc(NC(=O)[C@@H](NC(=O)c2ccnn2CC)C(C2CC2)C2CC2)c(F)c1` [Compound 212] gave an IC50 of 10 to 100 nM.

Tested on: not listed separately
Assay: Microsomal stability, human liver microsomes
Format: in vitro ADME
Conditions: human liver microsomes 0.5 mg protein/mL, 1 μM test compound, NADPH, 37° C., 60 min; read-out: HLM Clint
Description: (§1) Test compound and control working solution preparation. 5 μL of a compound and control stock solution (10 mM in dimethyl sulfoxide (DMSO)) were diluted with 495 μL of acetonitrile (ACN).
(§2) NADPH cofactor preparation. The appropriate amount of NADPH powder was weighed and diluted into a 10 mM MgCl2 solution (working solution concentration: 10 mM; final concentration in reaction system: 1 mM). Materials: NADPH powder: β-Nicotinamide adenine dinucleotide phosphate reduced form, tetrasodium salt; NADPHA4Na (Vendor: Chem-Impex International, Cat. No. 00616).
(§3) Liver Microsome Preparation. The appropriate concentrations of microsome working solutions were prepared in 100 mM potassium phosphate buffer. Materials: Human Liver Microsomes (HLM) Cat No. 452117 and Lot No. 38295 (Corning); SD Rat Liver Microsomes (RLM) Cat No. R1000 and Lot No. 1910100 (Xenotech).
(§4) Stop solution preparation. Cold (4° C.) acetonitrile (ACN) containing 200 ng/mL tolbutamide and 200 ng/mL labetalol as internal standards (IS) were used as the stop solution.
(§5) Assay Procedure. Empty incubation plates (T60 and NCF60) were warmed for 10 mins prior to use. Liver microsomes were diluted to 0.56 mg/mL in 100 mM phosphate buffer. 445 uL microsome working solutions (0.56 mg/mL) were transferred into pre-warmed ‘Incubation’ plates T60 and NCF60, Then ‘Incubation’ plates T60 and NCF60 were pre-incubated for 10 min at 37° C. with constant shaking. 54 μL liver microsomes were transferred to the blank plate, then 6 μL NAPDH cofactor were added to the blank plate, followed by the addition 180 μL quenching solution to the blank plate. 5 μL compound working solution (100 μM) were added into ‘incubation’ plates (T60 and NCF60) containing microsomes and mixed thoroughly 3 times. To the NCF60 plate 50 μL of buffer were added and mixed 3 times thoroughly. Start timing; plate was incubated at 37° C. for 60 min while shaking. In ‘Quenching’ plate TO, were added 180 μL quenching solution and 6 μL NAPDH cofactor. Plate is chilled to prevent evaporation. The T60 plate, was mixed 3 times thoroughly, and immediately 54 μL of the mixture was removed for the 0-min time point to ‘Quenching’ plate. Then 44 μL NAPDH cofactor was added to the incubation plate (T60). Start timing; plate was incubated at 37° C. for 60 min while shaking. Final concentrations of each component in the incubation media: Microsome (0.5 mg protein/mL); Test compound (1 μM); control compound ([…]); ACN (0.99%); and DMSO (0.01%). At 5, 15, 30, 45, and 60 min, 180 μL quenching solution was added to ‘Quenching’ plates, mixed once, and serially transferred 60 μL of sample from T60 plate per time point to ‘Quenching’ plates. For the NCF60 plate, mix once and 60 μL of sample was transferred from the NCF60 incubation to ‘Quenching’ plate containing quenching solution at the 60-min time point (Start time 1:00:00 and End Time 0:00:00).
(§6) All sampling plates were shaken for 10 min, then centrifuged at 4000 rpm for 20 minutes at 4° C. 80 μL of supernatant were transferred into 240 μL HPLC water, and mixed by plate shaker for 10 min. Each bioanalysis plate was sealed and shaken for 10 minutes prior to LC-MS/MS analysis.
For `CCC(=O)N[C@@H](C(=O)N1CCN(C)[C@@H](C)C1)[C@@H](C)c1ccc(NC(=O)[C@@H](NC(=O)c2ccnn2CC)C(C2CC2)C2CC2)c(F)c1` [Compound 213], the microsomal CLint at 1 μM was 50 to 150 µL/min/mg. Compound `CCC(=O)N[C@@H](C(=O)N1C[C@@H](C)N(C)[C@@H](C)C1)[C@@H](C)c1ccc(NC(=O)[C@@H](NC(=O)c2ccnn2CC)C(C2CC2)C2CC2)c(F)c1` [Compound 223] has a microsomal CLint at 1 μM of 50 to 150 µL/min/mg. For `CCC(=O)N[C@@H](C(=O)N1C[C@@H](C)N(C)C[C@H]1C)[C@@H](C)c1ccc(NC(=O)[C@@H](NC(=O)c2ccnn2CC)C(C2CC2)C2CC2)c(F)c1` [Compound 212], the microsomal CLint at 1 μM was < 50 µL/min/mg. For `CCC(=O)N[C@@H](C(=O)N1CCN(C)[C@H](C)C1)[C@@H](C)c1ccc(NC(=O)[C@@H](NC(=O)c2ccnn2CCF)C(C2CC2)C2CC2)c(F)c1` [Compound 217], the microsomal CLint at 1 μM was < 50 µL/min/mg. Compound `CCC(=O)N[C@@H](C(=O)N1CCN(C)CC1)[C@@H](C)c1ccc(NC(=O)[C@@H](NC(=O)c2ccnn2C(C)C)C(C2CC2)C2CC2)c(F)c1` [Compound 257] has a microsomal CLint at 1 μM of 50 to 150 µL/min/mg.

Tested on: not listed separately
Assay: Microsomal stability, rat liver microsomes
Format: in vitro ADME
Conditions: SD rat liver microsomes 0.5 mg protein/mL, 1 μM test compound, NADPH, 37° C., 60 min; read-out: RLM Clint
Description: as §1, §2, §3, §4, §5, §6
For `CCC(=O)N[C@@H](C(=O)N1CCN(C)[C@@H](C)C1)[C@@H](C)c1ccc(NC(=O)[C@@H](NC(=O)c2ccnn2CC)C(C2CC2)C2CC2)c(F)c1` [Compound 213], the microsomal CLint at 1 μM was < 9.6 µL/min/mg. `CCC(=O)N[C@@H](C(=O)N1C[C@@H](C)N(C)[C@@H](C)C1)[C@@H](C)c1ccc(NC(=O)[C@@H](NC(=O)c2ccnn2CC)C(C2CC2)C2CC2)c(F)c1` [Compound 223] gave a microsomal CLint at 1 μM of 9.6 to 20 µL/min/mg. Work on `CCC(=O)N[C@@H](C(=O)N1C[C@@H](C)N(C)C[C@H]1C)[C@@H](C)c1ccc(NC(=O)[C@@H](NC(=O)c2ccnn2CC)C(C2CC2)C2CC2)c(F)c1` [Compound 212] yielded a microsomal CLint at 1 μM of 9.6 to 20 µL/min/mg. With `CCC(=O)N[C@@H](C(=O)N1CCN(C)[C@H](C)C1)[C@@H](C)c1ccc(NC(=O)[C@@H](NC(=O)c2ccnn2CCF)C(C2CC2)C2CC2)c(F)c1` [Compound 217] the microsomal CLint at 1 μM was < 9.6 µL/min/mg. With `CCC(=O)N[C@@H](C(=O)N1CCN(C)CC1)[C@@H](C)c1ccc(NC(=O)[C@@H](NC(=O)c2ccnn2C(C)C)C(C2CC2)C2CC2)c(F)c1` [Compound 257] the microsomal CLint at 1 μM was < 9.6 µL/min/mg.

Tested on: not listed separately
Assay: Rat pharmacokinetics, PO
Format: in vivo
Conditions: male rat, PO 5 mg/kg oral gavage, plasma, Linear/log trapezoidal; read-out: Rat PO AUC0-t
Description: Formulations for PO. An appropriate amount of the test article is weighed and mixed with the appropriate volume of vehicle to get a clear solution or a uniform suspension, vortexing or sonication in water bath may used. Animals are dosed within four hours after the formulation is prepared.
Formulation samples are removed from each of the formulation solutions or suspensions, transferred into 1.5 mL of polypropylene microcentrifuge tubes and run dose validated by LC/UV or LC-MS/MS.
Dose administration. For PO dosing, the dose formulation is administered via oral gavage.
Blood Collection. Each blood collection (about 0.2 mL per time point) is performed from carotid artery cannula (CAC) of each animal into a pre-chilled commercial EDTA-K2 tubes as anti-coagulant, then placed on wet ice until centrifugation. Blood samples are processed for plasma by centrifugation at approximately 4° C., 3,200 g for 10 min. Plasma is collected respectively and a certain amount of plasma from rat is transferred into pre-labeled 96 well plate or polypropylene tubes, quick frozen over dry ice and kept at −60° C. or lower until LC-MS/MS analysis. After terminal collection, all plasmas are stored at approximately −80° C. freezer until final analysis.
Plasma concentration versus time data are plotted in graph and analyzed by non-compartmental approaches using the Phoenix WinNonlin 6.3 software program. Trapezoids: Before TMax (Linear); After Tmax (Log). Partial Area Interpolations: Before TMax (Linear); After Tmax (Log).
`CCC(=O)N[C@@H](C(=O)N1CCN(C)[C@@H](C)C1)[C@@H](C)c1ccc(NC(=O)[C@@H](NC(=O)c2ccnn2CC)C(C2CC2)C2CC2)c(F)c1` [Compound 213] gave an AUC(0-t) of 500 to 1000 ng·h/mL. With `CCC(=O)N[C@@H](C(=O)N1C[C@@H](C)N(C)[C@@H](C)C1)[C@@H](C)c1ccc(NC(=O)[C@@H](NC(=O)c2ccnn2CC)C(C2CC2)C2CC2)c(F)c1` [Compound 223] the AUC(0-t) was < 500 ng·h/mL. `CCC(=O)N[C@@H](C(=O)N1C[C@@H](C)N(C)C[C@H]1C)[C@@H](C)c1ccc(NC(=O)[C@@H](NC(=O)c2ccnn2CC)C(C2CC2)C2CC2)c(F)c1` [Compound 212] showed an AUC(0-t) of 500 to 1000 ng·h/mL. With `CCC(=O)N[C@@H](C(=O)N1CCN(C)[C@H](C)C1)[C@@H](C)c1ccc(NC(=O)[C@@H](NC(=O)c2ccnn2CCF)C(C2CC2)C2CC2)c(F)c1` [Compound 217] the AUC(0-t) was < 500 ng·h/mL. In the case of `CCC(=O)N[C@@H](C(=O)N1CCN(C)CC1)[C@@H](C)c1ccc(NC(=O)[C@@H](NC(=O)c2ccnn2C(C)C)C(C2CC2)C2CC2)c(F)c1` [Compound 257], the AUC(0-t) is reported as 500 to 1000 ng·h/mL.
